According to ChEMBL document CHEMBL3885861, “Open TG-GATES”:

Organism: Rattus norvegicus
Assay: Open TG-GATES - Regimen: Daily Repeat
Assay type: toxicity, organism-based, Sprague-Dawley
Design: regimen Daily Repeat, gender Male, age 6 weeks
Conditions: in vivo, po, 120 mg/kg, route gavage, dose level Middle; for APTT / Bas / Eos / Fbg / Hb / Ht / Lym / MCH / MCHC / MCV / Mono / Neu / PT / Plat / RBC / Ret / WBC: tissue Blood; for KIDNEY_L / KIDNEY_R / KIDNEY_TOTAL: tissue Kidney; for LIVER: tissue Liver; for A/G / ALP / ALT / AST / BUN / CRE / Ca / Cl / DBIL / GLC / IP / K / LDH / Na / PL / RALB / TBIL / TC / TG / TP / gamma-GTP: tissue Plasma

Compound COc1ccc(Cc2nccc3cc(OC)c(OC)cc23)cc1OC [PAPAVERINE] has a TERMINAL_BW (72 h, time 3 day) of 245.2 g, an APTT (72 h, time 3 day) of 22.2 s and a Bas (72 h, time 3 day) of 0%. The Eos (72 h, time 3 day) was 1%, the Fbg (72 h, time 3 day) was 316.2 mg/dL and the Hb (72 h, time 3 day) was 13.6 g/dL. For the same compound, the Ht (72 h, time 3 day) was 40.6%, the Lym (72 h, time 3 day) was 77.8% and the MCH (72 h, time 3 day) was 20.8 pg. It also gave an MCHC (72 h, time 3 day) of 33.5%, an MCV (72 h, time 3 day) of 62.1 fL and a Mono (72 h, time 3 day) of 2.6%. For the same compound, the Neu (72 h, time 3 day) was 17.8%, the PT (72 h, time 3 day) was 15.3 s and the Plat (72 h, time 3 day) was 116.6 x10_4/uL. The RBC (72 h, time 3 day) was 654.2 x10_4/ul, the Ret (72 h, time 3 day) was 6.2% and the WBC (72 h, time 3 day) was 84.6 x10_2/uL. For the same compound, the KIDNEY_L (72 h, time 3 day) was 1 g, the KIDNEY_R (72 h, time 3 day) was 1 g and the KIDNEY_TOTAL (72 h, time 3 day) was 2 g. For the same compound, the LIVER (72 h, time 3 day) was 11.7 g, the A/G (72 h, time 3 day) was 1.2 and the ALP (72 h, time 3 day) was 1731.2 IU/L. It also gave an ALT (72 h, time 3 day) of 43 IU/L, an AST (72 h, time 3 day) of 72 IU/L and a BUN (72 h, time 3 day) of 15.8 mg/dL. The CRE (72 h, time 3 day) was 0.2 mg/dL, the Ca (72 h, time 3 day) was 10.9 mg/dL and the Cl (72 h, time 3 day) was 106.8 meq/L. The DBIL (72 h, time 3 day) was 0 mg/dL, the GLC (72 h, time 3 day) was 195.8 mg/dL and the IP (72 h, time 3 day) was 7.3 mg/dL. For the same compound, the K (72 h, time 3 day) was 4.3 meq/L, the LDH (72 h, time 3 day) was 179.2 IU/L and the Na (72 h, time 3 day) was 142.6 meq/L. The PL (72 h, time 3 day) was 144 mg/dL, the RALB (72 h, time 3 day) was 3.1 g/dL and the TBIL (72 h, time 3 day) was 0.006 mg/dL. For the same compound, the TC (72 h, time 3 day) was 77.2 mg/dL, the TG (72 h, time 3 day) was 98.6 mg/dL and the TP (72 h, time 3 day) was 5.7 g/dL. It also gave a gamma-GTP (72 h, time 3 day) of 1.2 IU/L, a TERMINAL_BW ([…], time 7 day) of 287 g and a TERMINAL_BW ([…], time 14 day) of 331.7 g. It also gave a TERMINAL_BW ([…], time 28 day) of 380.1 g, an APTT ([…], time 7 day) of 21.9 s and a Bas ([…], time 7 day) of 0%. The Eos ([…], time 7 day) was 1%, the Fbg ([…], time 7 day) was 314.8 mg/dL and the Hb ([…], time 7 day) was 13.4 g/dL. It also gave a Ht ([…], time 7 day) of 39.9%, a Lym ([…], time 7 day) of 76.8% and an MCH ([…], time 7 day) of 21 pg. For the same compound, the MCHC ([…], time 7 day) was 33.6%, the MCV ([…], time 7 day) was 62.6 fL and the Mono ([…], time 7 day) was 2.8%. It also gave a Neu ([…], time 7 day) of 18.6%, a PT ([…], time 7 day) of 15 s and a Plat ([…], time 7 day) of 122.9 x10_4/uL. It also gave an RBC ([…], time 7 day) of 638.8 x10_4/ul, a Ret ([…], time 7 day) of 6.6% and a WBC ([…], time 7 day) of 106.6 x10_2/uL. For the same compound, the APTT ([…], time 14 day) was 22.2 s, the Bas ([…], time 14 day) was 0% and the Eos ([…], time 14 day) was 1%. For the same compound, the Fbg ([…], time 14 day) was 341.6 mg/dL, the Hb ([…], time 14 day) was 14.1 g/dL and the Ht ([…], time 14 day) was 42.1%. The Lym ([…], time 14 day) was 71.2%, the MCH ([…], time 14 day) was 20 pg and the MCHC ([…], time 14 day) was 33.6%. The MCV ([…], time 14 day) was 59.7 fL, the Mono ([…], time 14 day) was 3.4% and the Neu ([…], time 14 day) was 22.8%. The PT ([…], time 14 day) was 15.1 s, the Plat ([…], time 14 day) was 117.8 x10_4/uL and the RBC ([…], time 14 day) was 706.4 x10_4/ul. It also gave a Ret ([…], time 14 day) of 5.2%, a WBC ([…], time 14 day) of 121.3 x10_2/uL and an APTT ([…], time 28 day) of 23.2 s. The Bas ([…], time 28 day) was 0%, the Eos ([…], time 28 day) was 1% and the Fbg ([…], time 28 day) was 339.2 mg/dL. For the same compound, the Hb ([…], time 28 day) was 14.3 g/dL, the Ht ([…], time 28 day) was 43.4% and the Lym ([…], time 28 day) was 77.6%. It also gave an MCH ([…], time 28 day) of 18.5 pg, an MCHC ([…], time 28 day) of 33% and an MCV ([…], time 28 day) of 56.1 fL. It also gave a Mono ([…], time 28 day) of 2.8%, a Neu ([…], time 28 day) of 17% and a PT ([…], time 28 day) of 15.8 s. The Plat ([…], time 28 day) was 100.4 x10_4/uL, the RBC ([…], time 28 day) was 773 x10_4/ul and the Ret ([…], time 28 day) was 2.7%. It also gave a WBC ([…], time 28 day) of 122.5 x10_2/uL, a KIDNEY_L ([…], time 7 day) of 1.2 g and a KIDNEY_R ([…], time 7 day) of 1.2 g. It also gave a KIDNEY_TOTAL ([…], time 7 day) of 2.4 g, a KIDNEY_L ([…], time 14 day) of 1.3 g and a KIDNEY_R ([…], time 14 day) of 1.3 g. For the same compound, the KIDNEY_TOTAL ([…], time 14 day) was 2.6 g, the KIDNEY_L ([…], time 28 day) was 1.4 g and the KIDNEY_R ([…], time 28 day) was 1.4 g. For the same compound, the KIDNEY_TOTAL ([…], time 28 day) was 2.8 g, the LIVER ([…], time 7 day) was 13.8 g and the LIVER ([…], time 14 day) was 14.4 g. The LIVER ([…], time 28 day) was 15.7 g, the A/G ([…], time 7 day) was 1.2 and the ALP ([…], time 7 day) was 1633.8 IU/L. The ALT ([…], time 7 day) was 45.4 IU/L, the AST ([…], time 7 day) was 68.8 IU/L and the BUN ([…], time 7 day) was 17.2 mg/dL. The CRE ([…], time 7 day) was 0.2 mg/dL, the Ca ([…], time 7 day) was 10.8 mg/dL and the Cl ([…], time 7 day) was 106 meq/L. For the same compound, the DBIL ([…], time 7 day) was 0 mg/dL, the GLC ([…], time 7 day) was 197.4 mg/dL and the IP ([…], time 7 day) was 7.2 mg/dL. It also gave a K ([…], time 7 day) of 4 meq/L, an LDH ([…], time 7 day) of 173.4 IU/L and a Na ([…], time 7 day) of 141.4 meq/L. The PL ([…], time 7 day) was 149 mg/dL, the RALB ([…], time 7 day) was 3.1 g/dL and the TBIL ([…], time 7 day) was 0 mg/dL. It also gave a TC ([…], time 7 day) of 73.4 mg/dL, a TG ([…], time 7 day) of 123.2 mg/dL and a TP ([…], time 7 day) of 5.6 g/dL. It also gave a gamma-GTP ([…], time 7 day) of 2.2 IU/L, an A/G ([…], time 14 day) of 1.1 and an ALP ([…], time 14 day) of 1378.8 IU/L. The ALT ([…], time 14 day) was 48 IU/L, the AST ([…], time 14 day) was 75.4 IU/L and the BUN ([…], time 14 day) was 18.6 mg/dL. The CRE ([…], time 14 day) was 0.2 mg/dL, the Ca ([…], time 14 day) was 10.5 mg/dL and the Cl ([…], time 14 day) was 106.6 meq/L. The DBIL ([…], time 14 day) was 0 mg/dL, the GLC ([…], time 14 day) was 191 mg/dL and the IP ([…], time 14 day) was 7.2 mg/dL. The K ([…], time 14 day) was 4 meq/L, the LDH ([…], time 14 day) was 166 IU/L and the Na ([…], time 14 day) was 142.6 meq/L. It also gave a PL ([…], time 14 day) of 156 mg/dL, an RALB ([…], time 14 day) of 3.1 g/dL and a TBIL ([…], time 14 day) of 0.014 mg/dL. It also gave a TC ([…], time 14 day) of 81.8 mg/dL, a TG ([…], time 14 day) of 109.8 mg/dL and a TP ([…], time 14 day) of 5.8 g/dL. It also gave a gamma-GTP ([…], time 14 day) of 2.4 IU/L, an A/G ([…], time 28 day) of 1.1 and an ALP ([…], time 28 day) of 1042.8 IU/L. It also gave an ALT ([…], time 28 day) of 40.4 IU/L, an AST ([…], time 28 day) of 66.4 IU/L and a BUN ([…], time 28 day) of 18.2 mg/dL. It also gave a CRE ([…], time 28 day) of 0.2 mg/dL, a Ca ([…], time 28 day) of 10.1 mg/dL and a Cl ([…], time 28 day) of 106.2 meq/L. For the same compound, the DBIL ([…], time 28 day) was 0 mg/dL, the GLC ([…], time 28 day) was 191.4 mg/dL and the IP ([…], time 28 day) was 6 mg/dL. It also gave a K ([…], time 28 day) of 3.9 meq/L, an LDH ([…], time 28 day) of 120 IU/L and a Na ([…], time 28 day) of 141.8 meq/L. For the same compound, the PL ([…], time 28 day) was 129.8 mg/dL, the RALB ([…], time 28 day) was 3.1 g/dL and the TBIL ([…], time 28 day) was 0.01 mg/dL. For the same compound, the TC ([…], time 28 day) was 65.2 mg/dL, the TG ([…], time 28 day) was 119.8 mg/dL and the TP ([…], time 28 day) was 5.9 g/dL. For the same compound, the gamma-GTP ([…], time 28 day) was 2 IU/L.
